According to US20080193400A1, “C-Glycoside Compounds and Use Thereof for Depigmenting the Skin” (priority 2005, published 2008):

Legend:
[1] = system: co-culture of keratinocytes and melanocytes; assay: Inhibition of melanin synthesis (ratio of thiouracil to leucine incorporation) in a keratinocyte/melanocyte co-culture; format: cell-based; conditions: for IC50: ratio of thiouracil to leucine incorporation relative to 100% of control, read-out: IC50 (concentration for which a 50% inhibition of melanogenesis is observed)
Procedure: (§1) The melanogenesis-modulating effect of the compound of Example 2 was measured according to the method described in patent FR-A-2 734 825, and also in the article by R. Schmidt, P. Krien and M. Régnier, Anal. Biochem., 235(2), 113-18, (1996). This test is performed on a co-culture of keratinocytes and melanocytes.
(§2) The following were determined for the test compound: • the cytotoxicity, by estimating the incorporation of leucine, • the inhibitory activity on melanin synthesis, by estimating the ratio of the incorporation of thiouracil to the incorporation of leucine, relative to 100% of the control (the control corresponds to the test performed without test compound). The IC50 values (the concentration for which a 50% inhibition of melanogenesis is observed) were also determined.
(§3) The test was also performed with arbutin, which is a known depigmenting compound.

[2] = system: co-culture of keratinocytes and melanocytes; assay: Cytotoxicity by incorporation of leucine in a keratinocyte/melanocyte co-culture; format: cell-based; conditions: estimated by incorporation of leucine
Procedure: as §1, §2, §3

OC[C@H]1O[C@@H](Oc2ccc(O)cc2)[C@H](O)[C@@H](O)[C@@H]1O [Arbutin, arbutin, reference compound]
IC50 [1]: ≥ 100 µM
Cytotoxicity [2]: No

OC[C@H]1O[C@@H](CC(O)c2ccc(O)cc2)[C@H](O)[C@@H](O)[C@@H]1O (some centres unmarked) [Example 2]
Inhibition of melanogenesis (in words) ([1]; compared with arbutin): more efficient than arbutin
IC50 [1]: 100 µM
Cytotoxicity [2]: No
